Source: the supplement of paper PMC12350171

Key:
[1] = test system: Com21 synthetic gut community; test: community biomass OD578 after 24 h drug treatment relative to untreated (fraction of untreated control); higher = more community growth; details: community: Com21 (Com20 + E. coli ED1a)
Experimental: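 Com21 (Com20 plus E. coli ED1a) was treated with drug for 24 h under anaerobic conditions in mGAM. Community OD578 was then measured and normalised to untreated Com21; mean of 3 biological replicates.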

[2] = test system: Parabacteroides merdae; test: IC25 growth inhibition; higher = less potent
In short: (§1)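 Under anaerobic conditions, OD578 was read hourly in a plate reader for at least three biological replicates of monocultures grown overnight in mGAM. Each culture started at an OD578 of 0.01 in pre-reduced plates holding twofold drug dilutions and 1% DMSO (or water). IC25 was reported as a tested interval: the lowest concentration where the monotonic median area under the growth curve dropped below the cutoff. That cutoff was 0.75.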

[3] = test system: Clostridium saccharolyticum; test: IC25 growth inhibition; higher = less potent
In short: as §1

[4] = test system: Bacteroides vulgatus; test: IC25 growth inhibition; higher = less potent
In short: as §1

[5] = test system: Ruminococcus gnavus; test: IC25 growth inhibition; higher = less potent
In short: as §1

[6] = test system: Clostridium perfringens; test: IC25 growth inhibition; higher = less potent
In short: as §1

[7] = test system: Streptococcus parasanguinis; test: IC25 growth inhibition; higher = less potent
In short: as §1

[8] = test system: Bacteroides uniformis; test: IC25 growth inhibition; higher = less potent
In short: as §1

[9] = test system: Roseburia intestinalis; test: IC25 growth inhibition; higher = less potent
In short: as §1

[10] = test system: Dorea formicigenerans; test: IC25 growth inhibition; higher = less potent
In short: as §1

[11] = test system: Fusobacterium nucleatum subsp. Nucleatum; test: IC25 growth inhibition; higher = less potent
In short: as §1

[12] = test system: Yersinia enterocolitica WA-314; test: IC25 growth inhibition; higher = less potent
In short: as §1

[13] = test system: Yersinia pseudotuberculosis; test: IC25 growth inhibition; higher = less potent
In short: as §1

[14] = test system: Bacteroides thetaiotaomicron; test: IC25 growth inhibition; higher = less potent
In short: as §1

[15] = test system: Salmonella enterica typhimurium; test: IC25 growth inhibition; higher = less potent
In short: as §1

[16] = test system: Escherichia coli ED1a; test: IC25 growth inhibition; higher = less potent
In short: as §1

[17] = test system: Clostridium ramosum; test: IC25 growth inhibition; higher = less potent
In short: as §1

[18] = test system: Shigella flexneri; test: IC25 growth inhibition; higher = less potent
In short: as §1

[19] = test system: Bacteroides fragilis NT; test: IC25 growth inhibition; higher = less potent
In short: as §1

[20] = test system: Coprococcus comes; test: IC25 growth inhibition; higher = less potent
In short: as §1

[21] = test system: Vibrio cholerae; test: IC25 growth inhibition; higher = less potent
In short: as §1

[22] = test system: Clostridium bolteae; test: IC25 growth inhibition; higher = less potent
In short: as §1

[23] = test system: Collinsella aerofaciens; test: IC25 growth inhibition; higher = less potent
In short: as §1

[24] = test system: Eubacterium rectale; test: IC25 growth inhibition; higher = less potent
In short: as §1

[25] = test system: Streptococcus salivarius; test: IC25 growth inhibition; higher = less potent
In short: as §1

[26] = drug pretreatment concentration 10 µM
[27] = drug pretreatment concentration 20 µM
[28] = drug pretreatment concentration 40 µM
[29] = drug pretreatment concentration 80 µM
[30] = drug pretreatment concentration 160 µM
[31] = drug pretreatment concentration 2.5 µM
[32] = drug pretreatment concentration 5 µM
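For IC25 growth inhibition in this document: lowest concentration where monotonic median growth AUC falls below 0.75 of drug-free control.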

SMILES | community biomass OD578 [1, 26] | community biomass OD578 [1, 27] | community biomass OD578 [1, 28] | community biomass OD578 [1, 29] | community biomass OD578 [1, 30] | IC25 growth inhibition [2] [µM] | IC25 growth inhibition [3] [µM] | IC25 growth inhibition [4] [µM] | IC25 growth inhibition [5] [µM] | IC25 growth inhibition [6] [µM] | IC25 growth inhibition [7] [µM] | IC25 growth inhibition [8] [µM] | IC25 growth inhibition [9] [µM] | IC25 growth inhibition [10] [µM] | IC25 growth inhibition [11] [µM] | IC25 growth inhibition [12] [µM] | IC25 growth inhibition [13] [µM] | IC25 growth inhibition [14] [µM] | IC25 growth inhibition [15] [µM] | IC25 growth inhibition [16] [µM] | IC25 growth inhibition [17] [µM] | IC25 growth inhibition [18] [µM] | IC25 growth inhibition [19] [µM] | IC25 growth inhibition [20] [µM] | IC25 growth inhibition [21] [µM] | IC25 growth inhibition [22] [µM] | IC25 growth inhibition [23] [µM] | IC25 growth inhibition [24] [µM] | IC25 growth inhibition [25] [µM] | community biomass OD578 [1, 31] | community biomass OD578 [1, 32]
COc1cccc2c1C(=O)c1c(O)c3c(c(O)c1C2=O)C[C@@](O)(C(=O)CO)C[C@@H]3O[C@H]1C[C@H](N)[C@H](O)[C@H](C)O1 [Doxorubicin] | 0.978 | 0.949 | 0.918 | 0.881 | 0.907 | > 160 | ≤ 20 | > 160 | ≤ 160 | ≤ 40 | ≤ 5 | > 160 | ≤ 40 | ≤ 20 | > 160 | > 160 | > 160 | > 160 | > 160 | > 160 | ≤ 40 | > 160 | > 160 | ≤ 40 | > 160 | ≤ 20 | ≤ 10 | ≤ 80 | ≤ 10 | – | –
O=c1oc2ccccc2c(O)c1Cc1c(O)c2ccccc2oc1=O [Dicumarol] | 0.958 | 0.956 | 0.962 | – | – | ≤ 80 | ≤ 40 | ≤ 20 | ≤ 80 | ≤ 20 | ≤ 10 | ≤ 20 | > 80 | > 80 | ≤ 80 | > 80 | > 80 | ≤ 80 | > 80 | > 40 | ≤ 40 | > 80 | ≤ 20 | > 80 | ≤ 80 | > 80 | > 80 | > 80 | ≤ 20 | 0.966 | 0.965
O=C1NCCN1CCN1CCC(c2cn(-c3ccc(F)cc3)c3ccc(Cl)cc23)CC1 [Sertindole] | 1.01 | 0.991 | 0.99 | 0.786 | 0.451 | ≤ 40 | ≤ 40 | ≤ 20 | ≤ 40 | ≤ 80 | ≤ 80 | ≤ 20 | ≤ 20 | ≤ 20 | ≤ 40 | > 80 | ≤ 160 | ≤ 40 | > 160 | > 160 | ≤ 80 | > 80 | ≤ 40 | ≤ 80 | ≤ 80 | ≤ 80 | ≤ 40 | ≤ 20 | ≤ 20 | – | –
CCOC(=O)C1=C(C)NC(C)=C(C(=O)OCC)C1c1ccccc1/C=C/C(=O)OC(C)(C)C [Lacidipine] | 1.04 | 1 | 0.963 | – | – | > 40 | > 20 | > 40 | > 40 | ≤ 40 | > 20 | > 40 | ≤ 20 | > 40 | > 40 | > 20 | > 20 | > 20 | > 20 | > 40 | > 40 | > 40 | > 40 | > 20 | > 40 | > 20 | > 20 | > 40 | > 40 | 1.01 | 1.01
